Data published in US20110086872A1, “Berberine as a selective lung cancer agent and other compositions and methods” (priority 2007, published 2011).
pIC50: −log10 of the molar value. Read-outs that look alike come from different tables or passages of the source.

Assays:
[1] = system: human cancer cell lines tested; experiment: Cytotoxic activity against panel of human cancer cell lines; type: cell-based
[2] = system: Lu1 human lung cancer cell line; experiment: Cytotoxic activity against Lu1 cancer cell line; type: cell-based; conditions: pure isolates
Procedure: The CHCl3 was fractionated over a silica gel column (5×60 cm, 700 g, 63-200 μm). For the column chromatography, a CHCl3/MeOH gradient solvent system was applied with a gradual increase of the MeOH content. Fourteen fractions were collected based on the similarity of their TLC profiles. The fractions were then evaluated for their cytotoxic activity against Lu1 cancer cell line in order to determine the active fractions. […] (See FIG. 4, Table 2).

[3] = biological target: T1, human immunodeficiency virus-1 reverse transcriptase (HIV-1 RT) (Human immunodeficiency virus type 1 group M subtype B, UniProt P03366); type: biochemical; conditions: no unit or quantity printed
T1 construct: human immunodeficiency virus-1 reverse transcriptase (HIV-1 RT)
Procedure: (§1) The plant partitions were evaluated using in vitro bioassays based on a panel of human cancer cell lines: BC, Human Breast; Col2, Human Colon; KB, Human Carcinoma of the Nasopharynx; KBV1, Vinblastine-resistant KB; LNCaP, Hormone-dependent Human Prostate, and ZR75-1, Hormone-dependent Human Breast. These lines represent the main priorities for anticancer screening of the National Cancer Institute and have been well documented (Lin et al., J. Nat. Prod. 56: 22-29 (1993). In addition, samples were evaluated against the HIV-1 reverse transcriptase assay and, if active, against HIV-2 RT assay and a TIBO-resistant HIV-1 strain. Furthermore, some samples were tested for antimalarial activity (Angerhofer, Advances in Natural Products Chemistry, ed. Atta-ur-Rahman, pp 311-329 (1992)).
(§2) Thus, extracts, fractions and isolated compounds of plants were evaluated against three basic disease states: cancer, AIDS and malaria according to the published and established protocols and procedures. […] ((Angerhofer, Advances in Natural Products Chemistry, ed. Atta-ur-Rahman, pp 311-329 (1992), Monks et al., J. Nat'l Cancer Inst. 83: 11, 757-766 (1991), Tan et al., J. Nat. Product 54:143-154 (1991), Tan et al., Biochem. Biophysics. Res. Commun. 185:370-378 (1992), Geran et al., Cancer Chemother. Rep., Part 3, 3: 1-17 (1972), Skehan et al., J. Nat'l Cancer Inst. 82:1107-1112 (1990).)

[4] = system: D6 clone of P. falciparum; experiment: Antimalarial activity, D6 clone; type: cell-based
Procedure: as §1
as §2, with “(1990).) […]” for “(1990).)”

[5] = system: W2 clone of P. falciparum; experiment: Antimalarial activity, W2 clone; type: cell-based
Procedure: as §1
as §2, with “(1990).) […]” for “(1990).)”

[6] = system: D6 clone of P. falciparum; conditions: Vennestrom and Klayman, 1988; read-out: literature IC50 against D6 clone of P. falciparum; cited from earlier work
[7] = system: W2 clone of P. falciparum; conditions: Vennestrom and Klayman, 1988; read-out: literature IC50 against W2 clone of P. falciparum; cited from earlier work
[8] = system: Colon, Col 2 human cancer cell line; conditions: cited from earlier work
[9] = system: Breast, BC1 human cancer cell line; conditions: cited from earlier work
[10] = system: Lung, Lu1 human cancer cell line; conditions: cited from earlier work

Row | Structure (SMILES) | pIC50 ([1]; all cell lines of the panel, read-out: IC50 values against all of the human cancer cell lines tested) | pIC50 [2] | pIC50 ([1]; Homo sapiens, cancer cell lines other than lung, read-out: IC50 values, other cancer cell lines tested) | anti-HIV activity against HIV-1 RT, value [3] | selectivity index (SI), D6 ([4]; D6 clone) | pIC50 ([4]; Plasmodium falciparum, D6, read-out: IC50 against D6 clone of P. falciparum) | pIC50 ([5]; Plasmodium falciparum, W2, read-out: IC50 against W2 clone of P. falciparum) | selectivity index (SI), W2 ([5]; W2 clone) | pIC50 [6] | pIC50 [7] | pIC50 [8] | pIC50 [9] | pIC50 [10]
1 | COc1ccc2c(c1OC)C(=O)N1CCc3cc4c(cc3C(=O)C21O)OCO4 (racemic) [(±)-Chilenine] | 4.48 to 4.80 | – | – | – | – | – | – | – | – | – | – | – | –
2 | COc1ccc2cc3[n+](cc2c1OC)CCc1cc2c(cc1-3)OCO2 [berberine] | – | 4.92 | < 4.23 | 353.3 | 53.6 | 5.96 | 5.49 | 18.7 | 6.38 | 6.36 | 4.40 | 5.56 | 4.60
